Numbered stars: 1 amine (or outer) side, 2 acyl side, 3 side chain; on linkers, the order of the positions; unused ones are H or OH. Bridge positions count the residues as written; N and C are the ends. Square brackets hold non-standard residues; d marks the D form. Peptide text beside a SMILES is read from it. Trp(βS-Me,7-OMe) = COc1cccc2c([C@H](C)[C@H](N)C(=O)O)c[nH]c12; Ala(indazol-1-yl) = N[C@@H](Cn1ncc2ccccc21)C(=O)O; Trp(7-CN) = N#Cc1cccc2c(C[C@H](N)C(=O)O)c[nH]c12; Trp(7-Cl) = N[C@@H](Cc1c[nH]c2c(Cl)cccc12)C(=O)O; Phe(3-CONH2) = NC(=O)c1cccc(C[C@H](N)C(=O)O)c1; Phe(4-CONH2) = NC(=O)c1ccc(C[C@H](N)C(=O)O)cc1; Phe(4-COOH) = N[C@@H](Cc1ccc(C(=O)O)cc1)C(=O)O; 4Pal(3S-Me) = C[C@@H](c1ccncc1)[C@H](N)C(=O)O; Trp(7-aza) = N[C@@H](Cc1c[nH]c2ncccc12)C(=O)O; Pip(5R-OH) = O=C(O)[C@@H]1CC[C@@H](O)CN1; αMeW = C[C@](N)(Cc1c[nH]c2ccccc12)C(=O)O; X1 = O=C([C@@H]1CC[C@H](N[*:1])C1)[*:2]; Pip(4-aza) = O=C(O)[C@@H]1CNCCN1; 4Pal = N[C@@H](Cc1ccncc1)C(=O)O; Abu(4-CN) = N#CCC[C@H](N)C(=O)O; Gly(cBu) = N[C@H](C(=O)O)C1CCC1; NMeE = CN[C@@H](CCC(=O)O)C(=O)O; dHyp = O=C(O)[C@H]1C[C@H](O)CN1; Cit = NC(=O)NCCC[C@H](N)C(=O)O; Gly(N-CH2CH2OH) = O=C(O)CNCCO; Ahp(2) = CCCCC[C@H](N)C(=O)O; αMeS = C[C@](N)(CO)C(=O)O; Nle = CCCC[C@H](N)C(=O)O; Sar = CNCC(=O)O
Molecular target: T1, TNFα-induced NF-κB signal transduction pathway (TNFR1 signaling) in THP-1 cells (Homo sapiens, UniProt P19438)
T1 sequence (P19438 30-455): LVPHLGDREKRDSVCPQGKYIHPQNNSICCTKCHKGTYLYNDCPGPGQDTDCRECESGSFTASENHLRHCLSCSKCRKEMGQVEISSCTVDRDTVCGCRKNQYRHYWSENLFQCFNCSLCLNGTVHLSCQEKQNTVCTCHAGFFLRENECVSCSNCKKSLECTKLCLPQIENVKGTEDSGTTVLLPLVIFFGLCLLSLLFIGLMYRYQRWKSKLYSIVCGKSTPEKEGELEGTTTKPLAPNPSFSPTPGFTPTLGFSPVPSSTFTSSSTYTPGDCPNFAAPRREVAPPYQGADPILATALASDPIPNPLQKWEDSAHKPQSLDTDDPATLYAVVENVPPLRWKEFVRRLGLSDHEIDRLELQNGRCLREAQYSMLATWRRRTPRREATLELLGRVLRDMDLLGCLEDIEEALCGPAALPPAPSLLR
Test: THP-1 Lucia NF-κB reporter cell assay, inhibition of TNFα-induced NF-κB signaling
Type: cell-based
Conditions: THP-1 NF-κB Lucia reporter cells, 10 ng/mL TNFα, 16-18 h, secreted luciferase; read-out: THP-1 IC50
How it was run: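 Read-out: secreted Lucia luciferase luminescence (QUANTI-Luc) from supernatant after 16-18 h, 37 °C, 10 ng/mL rhTNFα. Peptide pretreatment 1 h at 37 °C; 20,000 cells/well, selection antibiotics omitted. IC50 via 4-parameter logistic model against min/max controls.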

Compared with `COc1cccc2c([C@H](C)[C@@H]3NC(=O)CN(C)C(=O)[C@H](Cc4cccc(C(N)=O)c4)NC(=O)[C@H](Cc4ccc(C(=O)O)cc4)NC(=O)[C@](C)(CO)NC(=O)[C@H](Cc4c[nH]c5c(Cl)cccc45)NC(=O)[C@H](Cc4ccncc4)NC(=O)[C@H](CC(N)=O)NC(=O)[C@H]4C[C@H](O)CN4C(=O)[C@H](Cc4c[nH]c5ccccc45)NC(=O)[C@@H]4CC[C@@H](O)CN4C(=O)[C@H](Cc4ccncc4)NC(=O)[C@H](CCCNC(N)=O)NC(=O)[C@@H]4CC[C@@H](C4)NC3=O)c[nH]c12` [SEQ ID NO. 54] (cyclo([4Pal][Trp(7-Cl)][αMeS][Phe(4-COOH)][Phe(3-CONH2)][Sar][Trp(βS-Me,7-OMe)][X1][Cit][4Pal][Pip(5R-OH)]W[dHyp]N)), `CCCC[C@@H]1NC(=O)[C@@H]2CC[C@@H](C2)NC(=O)[C@H]([C@@H](C)c2c[nH]c3c(OC)cccc23)NC(=O)CN(C)C(=O)[C@H](Cc2ccc(O)cc2)NC(=O)[C@H](Cc2ccc(C(N)=O)cc2)NC(=O)[C@](C)(CO)NC(=O)[C@H](Cc2c[nH]c3c(Cl)cccc23)NC(=O)[C@H](Cc2ccncc2)NC(=O)[C@H](CC(N)=O)NC(=O)[C@H](CCC(=O)O)N(C)C(=O)[C@H](Cn2ncc3ccccc32)NC(=O)[C@@H]2CC[C@@H](O)CN2C(=O)[C@H](Cc2ccncc2)NC1=O` [SEQ ID NO. 74] (cyclo([4Pal][Trp(7-Cl)][αMeS][Phe(4-CONH2)]Y[Sar][Trp(βS-Me,7-OMe)][X1][Nle][4Pal][Pip(5R-OH)][Ala(indazol-1-yl)][NMeE]N)) is 3.6-fold lower in IC50: 1.8 nM for the first, 0.5 nM for the second. The second is the more potent here.

First: CCCC[C@@H]1NC(=O)CSC[C@@H](C(N)=O)NC(=O)[C@](C)(Cc2c[nH]c3ccccc23)NC(=O)CN(C)C(=O)[C@H](Cc2ccc(O)cc2)NC(=O)[C@H](Cc2ccc(C(=O)O)cc2)NC(=O)[C@](C)(CO)NC(=O)[C@H](Cc2c[nH]c3c(Cl)cccc23)NC(=O)[C@H](Cc2ccncc2)NC(=O)[C@H](CC(N)=O)NC(=O)[C@H](CCC(=O)O)N(C)C(=O)[C@H](Cc2c[nH]c3ncccc23)NC(=O)[C@H](C2CCC2)NC(=O)[C@H](Cc2ccncc2)NC1=O [SEQ ID NO. 56] ({CH2CO}-[Nle][4Pal][Gly(cBu)][Trp(7-aza)][NMeE]N[4Pal][Trp(7-Cl)][αMeS][Phe(4-COOH)]Y[Sar][αMeW]C-NH2; thioether N-14)
Second: CCCC[C@@H]1NC(=O)[C@@H]2CC[C@@H](C2)NC(=O)[C@H]([C@@H](C)c2c[nH]c3c(OC)cccc23)NC(=O)CN(C)C(=O)[C@H](Cc2ccc(O)cc2)NC(=O)[C@H](Cc2ccc(C(=O)O)cc2)NC(=O)[C@](C)(CO)NC(=O)[C@H](Cc2c[nH]c3c(Cl)cccc23)NC(=O)[C@H](Cc2ccncc2)NC(=O)[C@H](CC(N)=O)NC(=O)CN(CCO)C(=O)[C@H](Cc2c[nH]c3ccccc23)NC(=O)[C@@H]2CNCCN2C(=O)[C@H](Cc2ccncc2)NC1=O [SEQ ID NO. 72] (cyclo([4Pal][Trp(7-Cl)][αMeS][Phe(4-COOH)]Y[Sar][Trp(βS-Me,7-OMe)][X1][Nle][4Pal][Pip(4-aza)]W[Gly(N-CH2CH2OH)]N))
The IC50 of the first is 14-fold higher: 11 nM for the first, 0.8 nM for the second. The second is the more potent here.

`CCCCC[C@@H]1NC(=O)[C@@H]2CC[C@@H](C2)NC(=O)[C@H]([C@@H](C)c2c[nH]c3c(OC)cccc23)NC(=O)CN(C)C(=O)[C@H](Cc2ccc(C(N)=O)cc2)NC(=O)[C@H](Cc2ccc(C(N)=O)cc2)NC(=O)[C@](C)(CO)NC(=O)[C@H](Cc2c[nH]c3c(C#N)cccc23)NC(=O)[C@H](Cc2ccc(C(=O)O)cc2)NC(=O)[C@H](CC(N)=O)NC(=O)[C@H]2C[C@H](O)CN2C(=O)[C@H](Cc2c[nH]c3ccccc23)NC(=O)[C@H](CCC(N)=O)NC(=O)[C@H]([C@@H](C)c2ccncc2)NC1=O` [SEQ ID NO. 70] (cyclo([Ahp(2)][4Pal(3S-Me)]QW[dHyp]N[Phe(4-COOH)][Trp(7-CN)][αMeS][Phe(4-CONH2)][Phe(4-CONH2)][Sar][Trp(βS-Me,7-OMe)][X1])) and `CCCCC[C@@H]1NC(=O)[C@@H]2CC[C@@H](C2)NC(=O)[C@H]([C@@H](C)c2c[nH]c3c(OC)cccc23)NC(=O)CN(C)C(=O)[C@H](Cc2ccc(C(N)=O)cc2)NC(=O)[C@H](Cc2ccc(C(N)=O)cc2)NC(=O)[C@](C)(CO)NC(=O)[C@H](Cc2c[nH]c3c(C#N)cccc23)NC(=O)[C@H](Cc2ccc(C(=O)O)cc2)NC(=O)[C@H](CC(N)=O)NC(=O)[C@H]2C[C@H](O)CN2C(=O)[C@H](Cc2c[nH]c3ccccc23)NC(=O)[C@H](CCC#N)NC(=O)[C@H]([C@@H](C)c2ccncc2)NC1=O` [SEQ ID NO. 79] (cyclo([Ahp(2)][4Pal(3S-Me)][Abu(4-CN)]W[dHyp]N[Phe(4-COOH)][Trp(7-CN)][αMeS][Phe(4-CONH2)][Phe(4-CONH2)][Sar][Trp(βS-Me,7-OMe)][X1])) are within 1.5-fold of each other in IC50: 0.9 nM for the first, 1.3 nM for the second.

Source: US20240287138A1, “CYCLIC PEPTIDES FOR INHIBITING TNF RECEPTOR 1 ACTIVITY” (Merck Sharp & Dohme LLC, priority 2023, published 2024)
